Earlier results as cited in PubChem BioAssay AID1259409 (Chemical Carcinogenesis Research Information System (CCRIS), 2018).

Tested on: rodent chemically induced tumor inhibition, incidence and multiplicity
Assay: CCRIS tumor inhibitor studies
Conditions: Route [Inhibitor]: ORAL, Promoter: NONE USED; for outcome: Target Tissue: Type of Lesion: GALLBLADDER: CARCINOMA IN SITU

**Q.** Which “tumour outcome (control, treated, inhibition, significance)” value (Carcinogen: 1,2-DIMETHYLHYDRAZINE, 540-73-8, Dose [Inhibitor]: 0, 10 MG/L IN DRINKING WATER FOR DURATION OF STUDY BEGINNING 7 D PRIOR TO CARCINOGEN TREATMENT (STUDY DURATION: 8 MO), Species: RAT, Strain/Sex: BD6/MALE, Target Tissue: Type of Lesion: INTESTINE: TUMOR, Dose [Carcinogen]: 20 MG/KG BW 1/WK FOR 20 WK) does the source give for `O=[Se](O)O` here?
**A.** 100%, 100%, 0%, not significant

**Q.** What about the “tumour outcome (control, treated, inhibition, significance)” value (Carcinogen: 1,2-DIMETHYLHYDRAZINE, 540-73-8, Dose [Inhibitor]: 4 PPM IN DRINKING WATER DAILY FOR 10-20 WK STARTING AFTER COMPLETION OF CARCINOGEN TREATMENT AND CONTINUING FOR DURATION, Species: RAT, Strain/Sex: SPRAGUE-DAWLEY/MALE, Target Tissue: Type of Lesion: COLON: ADENOCARCINOMA, VILLOUS ADENOMA, Dose [Carcinogen]: 20 MG/KG BW 1/WK FOR 20 WK) of the same compound?
**A.** 29/32 (91%), 63/69 (91%), 0%, not calculated

**Q.** What about the “tumour outcome (control, treated, inhibition, significance)” value (Carcinogen: 1,2-DIMETHYLHYDRAZINE, 540-73-8, Dose [Inhibitor]: 4 PPM IN DRINKING WATER DAILY FOR 20 WK STARTING SIMULTANEOUSLY WITH CARCINOGEN TREATMENT AND CONTINUING THROUGH END OF, Species: RAT, Strain/Sex: SPRAGUE-DAWLEY/MALE, Target Tissue: Type of Lesion: COLON: ADENOCARCINOMA, Dose [Carcinogen]: 20 MG/KG BW 1/WK FOR 20 WK) of the same compound?
**A.** 13/15 (87%), 6/15 (40%), 54%, p 0.025

**Q.** What about the “tumour outcome (control, treated, inhibition, significance)” value (Carcinogen: 1,2-DIMETHYLHYDRAZINE, 540-73-8, Dose [Inhibitor]: 4 PPM IN DRINKING WATER DAILY STARTING 2 WK PRIOR TO START OF CARCINOGEN TREATMENT AND CONTINUING FOR DURATION OF STUDY, Species: RAT, Strain/Sex: SPRAGUE-DAWLEY/MALE, Target Tissue: Type of Lesion: COLON: ADENOCARCINOMA, Dose [Carcinogen]: 20 MG/KG BW IN BACTERIOSTATIC SALINE 1/WK FOR 20 WK) of the same compound?
**A.** 9/14 (64%), 4/13 (31%), 52%, not calculated

**Q.** What about the “tumour outcome (control, treated, inhibition, significance)” value (Carcinogen: 2-(ACETYLAMINO)FLUORENE, 6292-55-3, Dose [Inhibitor]: 4 PPM IN DRINKING WATER DAILY STARTING 1 WK PRIOR TO CARCINOGEN TREATMENT AND CONTINUING FOR DURATION OF STUDY (STUDY DU, Species: RAT, Strain/Sex: SPRAGUE-DAWLEY/MALE, Target Tissue: Type of Lesion: LIVER: CARCINOMA, Dose [Carcinogen]: 0.03% IN DIET DAILY FOR 14 WK) of the same compound?
**A.** 9/13 (69%), 4/14 (29%), 58%, not calculated

**Q.** And the “tumour outcome (control, treated, inhibition, significance)” value (Carcinogen: 3'-METHYL-4-DIMETHYLAMINOAZOBENZENE, 55-80-1, Dose [Inhibitor]: 6 PPM IN DRINKING WATER DAILY STARTING 1 WK PRIOR TO START OF CARCINOGEN TREATMENT AND CONTINUING FOR DURATION OF STUDY, Species: RAT, Strain/Sex: SPRAGUE-DAWLEY/MALE, Target Tissue: Type of Lesion: LIVER: ADENOCARCINOMA, Dose [Carcinogen]: 0.05% IN DIET DAILY FOR 8 WK)?
**A.** 11/12 (92%), 7/15 (46%), 50%, p<0.01

**Q.** And the outcome (Carcinogen: 3-METHYLCHOLANTHRENE, 56-49-5, Dose [Inhibitor]: 0, 0.5 PPM IN DRINKING WATER FOR 24 WK BEGINNING 4 WK PRIOR TO CARCINOGEN TREATMENT (STUDY DURATION: 24 WK), Species: HAMSTER, Strain/Sex: SYRIAN/FEMALE, Dose [Carcinogen]: 3 MG IN BEESWAX PELLET INSERTED INTO GALLBLADDER AT WK 4 OF STUDY)?
**A.** 0/24 (0%), 3/20 (15%), -100%, not significant

**Q.** And the “tumour outcome (control, treated, inhibition, significance)” value (Carcinogen: 3-METHYLCHOLANTHRENE, 56-49-5, Dose [Inhibitor]: 0, 0.5 PPM IN DRINKING WATER FOR 24 WK BEGINNING 4 WK PRIOR TO CARCINOGEN TREATMENT (STUDY DURATION: 24 WK), Species: HAMSTER, Strain/Sex: SYRIAN/FEMALE, Target Tissue: Type of Lesion: GALLBLADDER: INVASIVE ADENOCARCINOMA, Dose [Carcinogen]: 3 MG IN BEESWAX PELLET INSERTED INTO GALLBLADDER AT WK 4 OF STUDY)?
**A.** 21/24 (88%), 11/20 (55%), 38%, p<0.05

**Q.** And the outcome (Carcinogen: 3-METHYLCHOLANTHRENE, 56-49-5, Dose [Inhibitor]: 0, 2 PPM IN DRINKING WATER FOR 24 WK BEGINNING 4 WK PRIOR TO CARCINOGEN TREATMENT (STUDY DURATION: 24 WK), Species: HAMSTER, Strain/Sex: SYRIAN/FEMALE, Dose [Carcinogen]: 3 MG IN BEESWAX PELLET INSERTED INTO GALLBLADDER AT WK 4 OF STUDY)?
**A.** 0/24 (0%), 7/21 (33%), -100%, p<0.05

**Q.** What about the “tumour outcome (control, treated, inhibition, significance)” value (Carcinogen: 3-METHYLCHOLANTHRENE, 56-49-5, Dose [Inhibitor]: 0, 2 PPM IN DRINKING WATER FOR 24 WK BEGINNING 4 WK PRIOR TO CARCINOGEN TREATMENT (STUDY DURATION: 24 WK), Species: HAMSTER, Strain/Sex: SYRIAN/FEMALE, Target Tissue: Type of Lesion: GALLBLADDER: INVASIVE ADENOCARCINOMA, Dose [Carcinogen]: 3 MG IN BEESWAX PELLET INSERTED INTO GALLBLADDER AT WK 4 OF STUDY) of the same compound?
**A.** 21/24 (88%), 10/21 (48%), 45%, p<0.05

**Q.** What about the “tumour outcome (control, treated, inhibition, significance)” value (Carcinogen: 3-METHYLCHOLANTHRENE, 56-49-5, Dose [Inhibitor]: 0, 2 UG/G/BW 2/WK FOR 20 WK (STUDY DURATION: 20 WK), Species: MOUSE, Strain/Sex: ICRC/MALE, Target Tissue: Type of Lesion: SKIN: PAPILLOMA, Dose [Carcinogen]: 50 UG IN 0.2 ML ACETONE 2/WK) of the same compound?
**A.** 100%, 100%, 0%, not significant

**Q.** And the outcome (Carcinogen: 3-METHYLCHOLANTHRENE, 56-49-5, Dose [Inhibitor]: 0, 4 PPM IN DRINKING WATER FOR 24 WK BEGINNING 4 WK PRIOR TO CARCINOGEN TREATMENT (STUDY DURATION: 24 WK), Species: HAMSTER, Strain/Sex: SYRIAN/FEMALE, Dose [Carcinogen]: 3 MG IN BEESWAX PELLET INSERTED INTO GALLBLADDER AT WK 4 OF STUDY)?
**A.** 0/24 (0%), 5/22 (23%), -100%, p<0.05

**Q.** What about the “tumour outcome (control, treated, inhibition, significance)” value (Carcinogen: 3-METHYLCHOLANTHRENE, 56-49-5, Dose [Inhibitor]: 0, 4 PPM IN DRINKING WATER FOR 24 WK BEGINNING 4 WK PRIOR TO CARCINOGEN TREATMENT (STUDY DURATION: 24 WK), Species: HAMSTER, Strain/Sex: SYRIAN/FEMALE, Target Tissue: Type of Lesion: GALLBLADDER: INVASIVE ADENOCARCINOMA, Dose [Carcinogen]: 3 MG IN BEESWAX PELLET INSERTED INTO GALLBLADDER AT WK 4 OF STUDY) of the same compound?
**A.** 21/24 (88%), 12/22 (55%), 38%, p<0.05

**Q.** And the “tumour outcome (control, treated, inhibition, significance)” value (Carcinogen: 4-(METHYLNITROSAMINO)-1-(3-PYRIDYL)-1-BUTANONE, 64091-91-4, Dose [Inhibitor]: 0, 0.0022 G/KG DIET (0.00008 UMOL/D) BEGINNING 2 WK PRIOR TO CARCINOGEN DOSE AND CONTINUING FOR DURATION OF STUDY (STUDY, Species: MOUSE, Strain/Sex: STRAIN-A/FEMALE, Target Tissue: Type of Lesion: LUNG: ADENOMA, Dose [Carcinogen]: 9.2, 9.1 MG/MOUSE IN DRINKING WATER DURING 7 WK)?
**A.** 28/28 (100%), 24/25 (96%), 4%, not significant

**Q.** What about the “tumour outcome (control, treated, inhibition, significance)” value (Carcinogen: 4-(METHYLNITROSAMINO)-1-(3-PYRIDYL)-1-BUTANONE, 64091-91-4, Dose [Inhibitor]: 0, 5 PPM IN DIET BEGINNING 1 WK PRIOR TO CARCINOGEN TREATMENT AND CONTINUING FOR 16 WK POST CARCINOGEN TREATMENT (STUDY, Species: MOUSE, Strain/Sex: STRAIN-A/FEMALE, Target Tissue: Type of Lesion: LUNG: ADENOMA, Dose [Carcinogen]: 10 UMOL IN 0.1 ML SALINE) of the same compound?
**A.** 100%, 100%, 0%, not significant
